Reference: US20260199443A1, “HISTONE DEACYTLASE 6 MODULATION OF TITIN PROTEIN MEDIATED CARDIAC TISSUE STIFFNESS AND METHOD FOR SAME” (The Regents of the University of Colorado, a Body Corporate, priority 2019, published 2026)
Entries after “also recorded” stand apart in the source; their conditions may differ. Read-outs that look alike come from different tables or passages of the source. Blank lines part the entries; values can stand above or below the compound they belong to.

Legend:
[1] = test system: adult rat ventricular myocytes (ARVMs); assay: Myofibril resting tension after 24 hour treatment of cultured ARVMs; format: cell-based; details: myofibrils isolated from ARVMs treated for 24 hours
[2] = test system: diastolic dysfunction in murine models; details: murine models of hypertension and aging, reference (21); cited from earlier work
HDAC6 = biological target: T1, HDAC6 (Rattus norvegicus, UniProt A0A8I6GM68); assay: Tubulin acetylation in treated ARVMs as a marker of HDAC6 inhibition (immunofluorescence, immunoblot); format: cell-based; details: ARVMs treated for 24 hours
T1 construct: endogenous in cells; host or cells: adult rat ventricular myocytes (ARVMs) from Sprague Dawley rats
T1 sequence (A0A8I6GM68 whole entry): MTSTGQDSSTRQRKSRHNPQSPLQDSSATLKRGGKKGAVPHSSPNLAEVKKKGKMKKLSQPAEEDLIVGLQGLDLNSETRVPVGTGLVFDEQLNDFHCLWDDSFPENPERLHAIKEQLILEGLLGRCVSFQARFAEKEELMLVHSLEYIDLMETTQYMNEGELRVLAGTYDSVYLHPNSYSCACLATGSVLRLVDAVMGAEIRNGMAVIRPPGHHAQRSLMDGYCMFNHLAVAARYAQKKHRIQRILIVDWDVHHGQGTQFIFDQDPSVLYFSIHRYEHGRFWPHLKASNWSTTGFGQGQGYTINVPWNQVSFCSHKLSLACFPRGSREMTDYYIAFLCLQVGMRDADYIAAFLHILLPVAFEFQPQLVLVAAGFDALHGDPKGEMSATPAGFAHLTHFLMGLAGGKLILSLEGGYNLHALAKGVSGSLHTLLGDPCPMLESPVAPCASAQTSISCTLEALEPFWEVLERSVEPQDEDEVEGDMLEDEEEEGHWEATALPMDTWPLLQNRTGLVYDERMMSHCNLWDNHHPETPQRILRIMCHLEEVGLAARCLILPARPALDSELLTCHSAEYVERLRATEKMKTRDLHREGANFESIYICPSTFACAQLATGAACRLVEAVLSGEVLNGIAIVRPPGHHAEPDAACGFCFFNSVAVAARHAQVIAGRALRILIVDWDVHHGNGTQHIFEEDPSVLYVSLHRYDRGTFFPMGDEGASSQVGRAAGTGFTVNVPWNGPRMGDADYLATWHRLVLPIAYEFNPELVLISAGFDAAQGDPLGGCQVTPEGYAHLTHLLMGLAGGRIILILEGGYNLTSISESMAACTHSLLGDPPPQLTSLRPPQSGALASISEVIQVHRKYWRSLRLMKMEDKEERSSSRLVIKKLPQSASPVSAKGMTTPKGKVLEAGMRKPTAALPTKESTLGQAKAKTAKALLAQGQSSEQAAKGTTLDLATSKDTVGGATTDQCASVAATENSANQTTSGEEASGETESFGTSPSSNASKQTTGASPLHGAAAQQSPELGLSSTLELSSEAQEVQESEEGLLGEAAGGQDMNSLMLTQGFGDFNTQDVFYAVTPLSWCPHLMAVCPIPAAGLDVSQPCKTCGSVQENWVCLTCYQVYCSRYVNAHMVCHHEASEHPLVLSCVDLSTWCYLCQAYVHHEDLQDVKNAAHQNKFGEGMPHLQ
Excerpt: FIG. 1K are images of immunoblot analysis of acetyl-tubulin and total tubulin in whole-cell homogenates from treated ARVMs.

rat myofibrils (titin) = assay: Ex vivo incubation of purified rat myofibrils with recombinant enzyme, then myofibril mechanics; details: 30 minutes
Description: (§1) Myofibril mechanics were quantified using the fast solution switching technique (47). Frozen LV sections were skinned in 0.5% Triton-X in rigor solution (132 mM NaCl, 5 mM KCl, 1 mM MgCl2, 10 mM Tris, 5 mM EGTA, pH 7.1) containing protease inhibitors (10 μm leupeptin, 5 μm pepstatin, 200 μm PMSF and 10 μm E64), as well as 500 μm NaN3 and 500 μm DTT at 4° C. overnight. Skinned LVs were washed in fresh rigor solution and homogenized (Tissue-Tearor, Thomas Scientific) in relaxing solution (pCa 9.0) containing protease inhibitors. […] Average sarcomere lengths and myofibril diameters were measured using ImageJ software. […] Data were collected and analyzed using customized Lab View software. Measured mechanical and kinetic parameters were defined as follows: resting tension (mN/mm^2)=myofibril basal tension in fully relaxing condition; maximal tension (mN/mm^2)=maximal tension generated at full calcium activation (pCa 4.5); the rate constant of tension development following maximal calcium activation=kACT; and relaxation parameters were defined as: duration of the linear relaxation=linear duration, and the rate constant of exponential relaxation=fast kREL. For, myofibril resting tension-to-sarcomere length curves, each myofibril was stretched incrementally to determine the resting tension at different sarcomere lengths, and a resting tension-sarcomere length relationship was measured. […]

[3] = test system: PKC-driven phosphorylation of sacromeric proteins; assay: Immunoblot with anti-PKC substrate antibody of treated human myofibril proteins; format: biochemical; details: human myofibrils, PKCα followed by HDAC6
Description: FIG. 3E is an immunoblot performed with an anti-PKC substrate antibody and solubilized proteins from myofibrils treated as indicated in the protocol illustrated in FIG. 3B.
Elevated PEVK phosphorylation is s associated with increased cardiomyocyte passive stiffness in pre-clinical models and in human heart failure (7). To begin to address the therapeutic potential of HDAC6 gain-of-function, an ex vivo experiment was performed to determine whether HDAC6 is capable of overriding the cardiac stiffening effect of PKC. Myofibrils obtained from non-failing human LVs were pretreated with recombinant PKCα, washed, and then incubated with recombinant HDAC6 (FIG. 3B).

[4] = test system: human myofibrils from non-failing donor left ventricle (titin); assay: Ex vivo treatment of human LV myofibrils with recombinant HDAC6, then myofibril mechanics
Description: as §1

[5] = test system: myofibrils from mice lacking the PEVK region of titin; assay: Ex vivo treatment of PEVK KO mouse LV myofibrils with recombinant HDAC6, then myofibril mechanics; details: 30 minutes
Description: as §1

[6] = test system: myofibrils from non-failing human LVs; assay: Ex vivo treatment of human myofibrils with recombinant PKCα, with or without subsequent recombinant HDAC6, then myofibril mechanics
Description: Myofibril mechanics were quantified using the fast solution switching technique (47). Frozen LV sections were skinned in 0.5% Triton-X in rigor solution (132 mM NaCl, 5 mM KCl, 1 mM MgCl2, 10 mM Tris, 5 mM EGTA, pH 7.1) containing protease inhibitors (10 μm leupeptin, 5 μm pepstatin, 200 μm PMSF and 10 μm E64), as well as 500 μm NaN3 and 500 μm DTT at 4° C. overnight. Skinned LVs were washed in fresh rigor solution and homogenized (Tissue-Tearor, Thomas Scientific) in relaxing solution (pCa 9.0) containing protease inhibitors. Myofibril suspensions were transferred to a temperature controlled chamber (15° C.) containing relaxing solution (pCa 9.0; 100 mM Na2EGTA; 1 M potassium propionate; 100 mM Na2SO4; 1 M MOPS; 1 M MgCl2; 6.7 mM ATP; and 1 mM creatine phosphate; pH 7.0). Myofibril bundles were mounted between two micro-tools. One tool was connected to a motor that could produce rapid length changes (Mad City Labs). The second tool was a calibrated cantilevered force probe (7-10 μm/μN; frequency response 2-5 KHz). Myofibrils were set 5-10% above slack myofibril length. Average sarcomere lengths and myofibril diameters were measured using ImageJ software. Mounted myofibrils were activated and relaxed by rapidly translating the interface between two flowing streams of solutions of different pCa. Data were collected and analyzed using customized Lab View software. Measured mechanical and kinetic parameters were defined as follows: resting tension (mN/mm^2)=myofibril basal tension in fully relaxing condition; maximal tension (mN/mm^2)=maximal tension generated at full calcium activation (pCa 4.5); the rate constant of tension development following maximal calcium activation=kACT; and relaxation parameters were defined as: duration of the linear relaxation=linear duration, and the rate constant of exponential relaxation=fast kREL. For, myofibril resting tension-to-sarcomere length curves, each myofibril was stretched incrementally to determine the resting tension at different sarcomere lengths, and a resting tension-sarcomere length relationship was measured. […]

[7] = test system: WT mouse left ventricle myofibrils (titin); assay: Ex vivo treatment of WT mouse LV myofibrils with recombinant HDAC6, then myofibril mechanics; details: 30 minutes, listed as rHDAC6
Description: as §1

Compound: CCN(CC)Cc1ccc2cc(COC(=O)Nc3ccc(C(=O)NO)cc3)ccc2c1 [givinostat, [6-(diethylaminomethyl)naphthalen-2-yl] methyl N-[4-(hydroxycarbamoyl)phenyl] carbamate]
myofibril resting tension / myofibril stiffness [1]: no effect
diastolic dysfunction [2]: ameliorates rather than exacerbates diastolic dysfunction

tubulin acetylation as a marker of HDAC6 inhibition (HDAC6): inhibited HDAC6 equivalently
Compound: CN1CCc2c(c3ccccc3n2Cc2ccc(C(=O)NO)cc2)C1 [tubastatin A]
myofibril resting tension / myofibril stiffness [1]: elevated resting tension; also recorded: dramatically increased resting tension

Compound: recombinant HDAC6: recombinant HDAC6 (1 μg/μL, BPS Bioscience) used for ex vivo treatment of myofibrils
titin stiffness / myofibril compliance (rat myofibrils (titin)): reduced titin stiffness; also recorded: increases myofibril compliance
PKC-driven phosphorylation of sacromeric proteins [3]: without affecting
myofibril compliance / cardiomyocyte passive stiffness [4]: increases myofibril compliance
myofibril compliance / cardiomyocyte passive stiffness ([4]; listed as rHDAC6): conserved ability of this deacetylase to control cardiomyocyte passive stiffness
response of myofibril stiffness to HDAC6 [5]: completely resistant
PKC-induced leftward shift in the sarcomere length-to-resting tension curve ([6]; human myofibrils pretreated with recombinant PKCα, then recombinant HDAC6): largely blocked
PKCα-induced stiffening (resting tension at physiologic sarcomere length) ([6]; human myofibrils pretreated with recombinant PKCα, washed, then incubated with recombinant HDAC6): completely normalized
myofibril compliance [7]: increased compliance

Compound: PKCα: recombinant PKCα (0.066 U/μL, Millipore 14-484) with lipid activator
myofibril resting tension at physiologic sarcomere length ([6]; human myofibrils treated with recombinant PKCα alone): dramatically increased

Compound: HDAC2: recombinant HDAC2 used as control in the ex vivo myofibril assay
titin stiffness / myofibril compliance (rat myofibrils (titin)): not
